Here are results for 12 molecules from ChEMBL document CHEMBL1141999, “Biaryls and heterobiaryls as alpha-glucosidase and protein tyrosine phosphatase inhibitors” (Bioorg Med Chem Lett, 2005).

Test [1] is described as follows: Percentage inhibition (100 uM) against protein tyrosine […].
Test [2] deals with T1, Neutral alpha-glucosidase AB (Homo sapiens) (UniProt Q14697).
T1 sequence (whole entry): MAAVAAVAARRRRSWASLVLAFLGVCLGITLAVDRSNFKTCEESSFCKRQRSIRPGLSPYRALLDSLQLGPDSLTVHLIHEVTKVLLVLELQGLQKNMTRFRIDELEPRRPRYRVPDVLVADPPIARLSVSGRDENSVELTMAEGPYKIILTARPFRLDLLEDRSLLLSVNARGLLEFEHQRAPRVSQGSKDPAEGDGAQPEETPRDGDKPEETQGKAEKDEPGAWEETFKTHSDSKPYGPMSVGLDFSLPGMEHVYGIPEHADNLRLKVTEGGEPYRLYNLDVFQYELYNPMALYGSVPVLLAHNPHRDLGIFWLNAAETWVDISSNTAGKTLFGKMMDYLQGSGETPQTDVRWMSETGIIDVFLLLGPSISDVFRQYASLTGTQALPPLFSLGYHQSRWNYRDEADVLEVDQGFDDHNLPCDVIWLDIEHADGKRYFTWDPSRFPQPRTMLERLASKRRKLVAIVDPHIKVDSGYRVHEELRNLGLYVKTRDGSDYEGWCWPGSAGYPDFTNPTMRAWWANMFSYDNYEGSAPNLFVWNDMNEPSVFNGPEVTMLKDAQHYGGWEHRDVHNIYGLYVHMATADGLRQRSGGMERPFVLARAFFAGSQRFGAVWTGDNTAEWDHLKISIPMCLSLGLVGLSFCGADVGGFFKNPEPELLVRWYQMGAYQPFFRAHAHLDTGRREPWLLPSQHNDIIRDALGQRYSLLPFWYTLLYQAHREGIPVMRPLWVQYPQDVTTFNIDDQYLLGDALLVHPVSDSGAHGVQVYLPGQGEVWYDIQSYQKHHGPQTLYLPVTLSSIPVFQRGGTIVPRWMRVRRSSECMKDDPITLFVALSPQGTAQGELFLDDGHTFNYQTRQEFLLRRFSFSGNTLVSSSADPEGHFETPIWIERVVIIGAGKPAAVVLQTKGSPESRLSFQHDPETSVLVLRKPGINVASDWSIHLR
Description: Percentage inhibition (100 uM) against Alpha glucosidase.

On to `N#Cc1c(N2CCc3ccccc3C2)cc(-c2cccc3ccccc23)c2c1-c1ccccc1SC2`, for which the values for the inhibition in test [1] and in test [2] were 41.9% and 98.7%, respectively.

Take `N#Cc1c(-c2ccc(C(F)(F)F)cc2)cc(-c2ccc3ccc4cccc5ccc2c3c45)cc1N1CCCC1`: the inhibition (as a rule, the change of the read-out against control, counted positive when it falls) was 12.5% in test [1] and 93.8% in test [2].

Regarding `N#Cc1c(N2CCc3ccccc3C2)cc(-c2ccc(Cl)cc2)oc1=O`, the inhibition turned out to be 18.2% in test [1] and 51.9% in test [2].

For the molecule `C[C@H]1O[C@H](O[C@H]2[C@H](O)[C@@H](O)[C@@H](O[C@H]3[C@H](O)[C@@H](O)C(O)O[C@@H]3CO)O[C@@H]2CO)[C@H](O)[C@@H](O)[C@@H]1N[C@H]1C=C(CO)[C@@H](O)[C@H](O)[C@H]1O` (some centres not stated), the inhibition in test [2] was 90%.

Turning to SODIUM ORTHOVANAD, in test [1], the inhibition stood at 77.6%.

With `N#Cc1c(N2CCc3ccccc3C2)cc(-c2cccc3ccccc23)c2c1CCCC2`, the inhibition worked out at 14.8% in test [1] and 72.2% in test [2].

Take `N#Cc1c(N2CCc3ccccc3C2)cc(-c2ccc(Cl)cc2)c2c1CCCCCC2`: the inhibition in test [1] came to 24.2%; in test [2], 28.8%.

Take `N#Cc1c(N2CCc3ccccc3C2)cc(-c2cccc3ccccc23)c2c1-c1ccccc1CC2`: the inhibition was determined as 51.8% in test [1] and 94.8% in test [2].

In the case of `N#Cc1c(N2CCc3ccccc3C2)cc(-c2ccc(Cl)cc2)c2c1CCCC2`, the inhibition turned out to be 23.2% in test [1] and 20.7% in test [2].

With `N#Cc1c(N2CCc3ccccc3C2)cc(-c2cccc3ccccc23)c2c1CCSC2`, the inhibition in test [1] is 26.7%; in test [2], 96.1%.

Regarding `N#Cc1c(N2CCc3ccccc3C2)cc(-c2ccc(Br)cc2)oc1=O`, the values for the inhibition in test [1] and in test [2] were 25.1% and 59.7%, respectively.

On to `N#Cc1c(N2CCc3ccccc3C2)cc(-c2ccc(Cl)cc2)c2c1CCCCC2`, for which the inhibition in test [1] turned out to be 42.8%; in test [2], 47.4%.
